Data set [1] can be described thus: Solubility of the products of the Examples in water and organic solvents. Type of data set: physicochemical.
Data set [2] has as its system mouse P-388 leukemia. The data set can be described thus: Antitumor effect to mouse P-388 leukemia (ILS). The class given is in vivo. To be noted: 5 mg/kg, intraperitoneal, once a day for 5 days, P-388 in CDF1 mice. Here is the method: Antitumor effects of the products to mouse P-388 leukemia were tested.
(§1) P-388 ascites cells obtained by a successive cultivation in DBA/2 mice were transplanted by the route of intraperitoneal injection into CDF1 mice (10 mice in one group) at a rate of 1×10^6 /mouse. From 24 hours after the transplantation, a solution of each compound in physiological saline solution was injected once a day for 5 days as 5 times by the route of intraperitoneal injection. Each average survival days (T) of the administered group and each average survival days (C) of control group were measured to calculate each percentage increase in life span (ILS(%))

Data set [3] is described as follows: Weight decrease and kidney cell damage in the mice of the P-388 test. Particulars: 5 mg/kg intraperitoneal for 5 days. Type of data set: in vivo, CDF1 mice. Here is the method: as §1

With `COC(=O)C(N)C(N)C(=O)OC` (stereo not shown) [Example 1], in data set [1] (benzene and chloroform), the “solubility in benzene and chloroform” value is “insoluble”. The solubility in ethanol result in data set [1] (ethanol) is recorded as “soluble”. Also, the solubility in methanol entry in data set [1] (methanol) is reported as “soluble”. The solubility in water entry in data set [1] (water) is on record as “soluble”.

On to `N.N.[Cl][Pt][Cl]` [Compound No. 5, cis-[diaminedichloroplatinum (II)]], for which the “ILS (percentage increase in life span, T/C×100)” value in data set [2] amounted to 180%. Moreover, in data set [3], the kidney cell damage result is reported as “kidney cell damage were observed for all of 10 mice” and the weight decrease entry is recorded as “remarkable weight decrease”.

The values are drawn from US4372890A, “Platinum compound” (Kureha Kagaku Kogyo Kabushiki Kaisha, priority 1980, dated 1983).
